Assay results as given in patent US11691951B2 (Curtana Pharmaceuticals, Inc., priority 2015, dated 2023).

tested on: GBM8 cells (human glioblastoma neurosphere cell culture); assay: GBM8 viability assay (Cell Titer Glo luminescence, 3 days); type: cell-based; details: 72 h, 3 days incubation
Protocol: Example 283: GBM4 and GBM8 Viability Assay
Cell culture medium was prepared from a NSA proliferation kit (Neurocult) and NeuroCult supplements (Stemcell Tech Cat. #05751) and treated with 20 μL of 10 μg/mL rh EGF, 10 μL of 10 μg/mL rh bFGF and 10 μL of 0.2% Heparin. In this medium, human glioblastoma cells were cultured in ultra-low attachment tissue culture flasks until 1×10^6 cells ml was achieved (GBM4 and GBM8 are distinct neurosphere cell cultures derived from these human patient tissues). GBM4 and GBM8 cells were dissociated and 10 mL of media containing 4000 human glioblastoma cells per 90 uL were transferred to an ultra-low binding 96-well plate and incubated at 37° C. overnight. On the following day, 10 μL of a 1% DMSO solution of test compound in assay medium was added to wells containing the cell suspension and the mixture incubated at 37° C. for 3 days. At this time, the plate was removed from the incubator and allowed to reach room temperature. After about 30 minutes, 50 μL of Cell Titer Glo solution was added to each well and the plate shaken for 1 minute at low speed. After 10 minutes luminescence was recorded using a Tecan Safire2 reader.
Reduction in luminescence compared to DMSO only control wells was used to determine the percentage inhibition of cell growth. IC50s were calculated using the % inhibition of luminescence for serial dilutions of compounds fitted to a 4-parameter fit within the Prism (San Diego) curve fitting program.

`Cc1cc(NCC(C)O)nc(NC(=O)Nc2ccc(Cl)c(Cl)c2)n1` (stereo not drawn) [Compound 10, 1-{2-[3-(3,4-Dichlorophenyl)ureido]-6-methyl-4-pyrimidinylamino}-2-propanol] and `Cc1cc(NCCO)nc(NC(=O)Nc2ccc(Cl)c(Cl)c2)n1` [Compound 12] cannot be ordered by IC50: under 1000 nM for the first, under 1000 nM for the second.

`Cc1cc(NCCN(C)C)nc(NC(=O)Nc2ccc(Cl)c(Cl)c2)n1` [Compound 11] and `Cc1cc(NCCCCN(C)C)nc(NC(=O)Nc2ccc(Cl)c(Cl)c2)n1` [Compound 17] cannot be ordered by IC50: under 1000 nM for the first, under 1000 nM for the second.

`Cc1cc(NCCCCO)nc(NC(=O)Nc2ccc(Cl)c(Cl)c2)n1` [Compound 13] and `Cc1cc(NCCCCN)nc(NC(=O)Nc2ccc(Cl)c(Cl)c2)n1` [Compound 15] cannot be ordered by IC50: under 1000 nM for the first, under 1000 nM for the second.

First: Cc1cc(NCCN)nc(NC(=O)Nc2ccc(Cl)c(Cl)c2)n1 [Compound 14]
Second: Cc1cc(NCCC(N)=O)nc(NC(=O)Nc2ccc(Cl)c(Cl)c2)n1 [Compound 19]
The IC50 of the first is lower: under 1000 nM for the first, 1000 to 10000 nM for the second.

`Cc1cc(NCC2CCCN(C)C2)nc(NC(=O)Nc2ccc(Cl)c(Cl)c2)n1` (stereo not drawn) [Compound 16] and `Cc1cc(NCC2CCCNC2)nc(NC(=O)Nc2ccc(Cl)c(Cl)c2)n1` (stereo not drawn) [Compound 27] cannot be ordered by IC50: under 1000 nM for the first, under 1000 nM for the second.

`Cc1cc(NCCOCCO)nc(NC(=O)Nc2ccc(Cl)c(Cl)c2)n1` [Compound 18] and `Cc1cc(NCCOCCO)nc(NC(=O)Nc2ccc(Cl)c(C(F)(F)F)c2)n1` [Compound 51] cannot be ordered by IC50: under 1000 nM for the first, under 1000 nM for the second.

`COC(=O)CCNc1cc(C)nc(NC(=O)Nc2ccc(Cl)c(Cl)c2)n1` [Compound 20] and `CNCCNc1cc(C)nc(NC(=O)Nc2ccc(Cl)c(Cl)c2)n1` [Compound 28] cannot be ordered by IC50: under 1000 nM for the first, under 1000 nM for the second.

`Cc1cc(NCCCc2ccccn2)nc(NC(=O)Nc2ccc(Cl)c(Cl)c2)n1` [Compound 21] and `Cc1cc(NCCc2ccccn2)nc(NC(=O)Nc2ccc(Cl)c(C(F)(F)F)c2)n1` [Compound 57] fall in the same range of IC50: 1000 to 10000 nM for the first, 1000 to 10000 nM for the second.

`CNCCCCNc1cc(C)nc(NC(=O)Nc2ccc(Cl)c(Cl)c2)n1` [Compound 26, 1-(3,4-dichlorophenyl)-3-(4-methyl-6-((4-(methylamino)butyl)amino)pyrimidin-2-yl)urea] and `CNCCCNc1cc(C)nc(NC(=O)Nc2ccc(Cl)c(Cl)c2)n1` [Compound 29] cannot be ordered by IC50: under 1000 nM for the first, under 1000 nM for the second.

`Cc1cc(NCCCO)nc(N2CCN(c3ccc(Cl)c(Cl)c3)C2=O)n1` [Compound 35, 3-(3,4-dichlorophenyl)-1-[4-(3-hydroxypropylamino)-6-methyl-2-pyrimidinyl]-2-imidazolidinone] and `Cc1cc(NCCCN(C)C)nc(N2CCN(c3ccc(Cl)c(Cl)c3)C2=O)n1` [Compound 36, 3-(3,4-dichlorophenyl)-1-{4-[3-(dimethylamino)propylamino]-6-methyl-2-pyrimidinyl}-2-imidazolidinone] cannot be ordered by IC50: under 1000 nM for the first, under 1000 nM for the second.

`Cc1cc(NCCCO)nc(NC(=O)Nc2ccc(Cl)cc2)n1` [Compound 41, 3-{2-[3-(p-Chlorophenyl)ureido]-6-methyl-4-pyrimidinylamino}-propanol] and `Cc1cc(NCCCN(C)C)nc(NC(=O)Nc2ccc(Cl)cc2)n1` [Compound 44, 1-{2-[3-(4-chloro-phenyl)ureido]-6-methyl-4-pyrimidin-ylamino}-3-(dimethylamino)propane] cannot be ordered by IC50: under 1000 nM for the first, under 1000 nM for the second.

`Cc1cc(NCCCO)nc(NC(=O)Nc2cccc(Cl)c2)n1` [Compound 43, 3-{2-[3-(m-chlorophenyl)ureido]-6-methyl-4-pyrimidinylamino}-propanol] and `Cc1cc(NCCCN(C)C)nc(NC(=O)Nc2cccc(Cl)c2)n1` [Compound 45, 1-{2-[3-(3-Chloro-phenyl)ureido]-6-methyl-4-pyrimidin-ylamino}-3-(dimethyl-amino)propane] cannot be ordered by IC50: under 1000 nM for the first, under 1000 nM for the second.

Compared with `Cc1cc(NCCCN(C)C)nc(NC(=O)Nc2ccc(Cl)c(C(F)(F)F)c2)n1` [Compound 47, 1-(2-{3-[4-chloro-3-(trifluoromethyl)phenyl]ureido}-6-methyl-4-pyrimidinylamino)-3-(dimethylamino)propane], `Cc1cc(NCCCCN(C)C)nc(NC(=O)Nc2ccc(Cl)c(C(F)(F)F)c2)n1` [Compound 56] is higher in IC50: under 1000 nM for the first, 1000 to 10000 nM for the second.

Compared with `Cc1cc(NCCN(C)C)nc(NC(=O)Nc2ccc(Cl)c(C(F)(F)F)c2)n1` [Compound 48], `Cc1cc(NCCO)nc(NC(=O)Nc2ccc(Cl)c(C(F)(F)F)c2)n1` [Compound 49] is lower in IC50: 1000 to 10000 nM for the first, under 1000 nM for the second. The second is the more potent here.

`Cc1cc(NCCCCO)nc(NC(=O)Nc2ccc(Cl)c(C(F)(F)F)c2)n1` [Compound 50] and `CNCCCCNc1cc(C)nc(NC(=O)Nc2ccc(Cl)c(C(F)(F)F)c2)n1` [Compound 65] cannot be ordered by IC50: under 1000 nM for the first, under 1000 nM for the second.

`Cc1cc(NCC(O)CO)nc(NC(=O)Nc2ccc(Cl)c(C(F)(F)F)c2)n1` (stereo not drawn) [Compound 52] and `Cc1cc(NCC(C)O)nc(NC(=O)Nc2ccc(Cl)c(C(F)(F)F)c2)n1` (stereo not drawn) [Compound 54] cannot be ordered by IC50: under 1000 nM for the first, under 1000 nM for the second.

`Cc1cc(NCC(F)(F)CO)nc(NC(=O)Nc2ccc(Cl)c(C(F)(F)F)c2)n1` [Compound 53] and `Cc1cc(NCCN)nc(NC(=O)Nc2ccc(Cl)c(C(F)(F)F)c2)n1` [Compound 55] cannot be ordered by IC50: under 1000 nM for the first, under 1000 nM for the second.

`Cc1cc(NCCCc2cnc[nH]2)nc(NC(=O)Nc2ccc(Cl)c(C(F)(F)F)c2)n1` [Compound 59] and `CNCCCNc1cc(C)nc(NC(=O)Nc2ccc(Cl)c(C(F)(F)F)c2)n1` [Compound 64] cannot be ordered by IC50: under 1000 nM for the first, under 1000 nM for the second.

Compared with `Cc1cc(NCCC(N)=O)nc(NC(=O)Nc2ccc(Cl)c(C(F)(F)F)c2)n1` [Compound 60], `CNCCNc1cc(C)nc(NC(=O)Nc2ccc(Cl)c(C(F)(F)F)c2)n1` [Compound 63, 1-(4-chloro-3-(trifluoromethyl)phenyl)-3-(4-methyl-6-((2-(methylamino)ethyl)amino)pyrimidin-2-yl)urea] is higher in IC50: under 1000 nM for the first, 1000 to 10000 nM for the second. The first is the more potent here.

`Cc1cc(NCC2CCCNC2)nc(NC(=O)Nc2ccc(Cl)c(C(F)(F)F)c2)n1` (stereo not drawn) [Compound 66] and `Cc1cc(NC2CCNC2)nc(NC(=O)Nc2ccc(Cl)c(C(F)(F)F)c2)n1` (stereo not drawn) [Compound 67] cannot be ordered by IC50: under 1000 nM for the first, under 1000 nM for the second.

`Cc1cc(NCCCN(C)C)nc(NC(=O)Nc2ccccc2)n1` [Compound 69, 1-(4-((3-(dimethylamino)propyl)amino)-6-methylpyrimidin-2-yl)-3-phenylurea] and `Cc1cc(NCCCCN(C)C)nc(NC(=O)Nc2ccccc2)n1` [Compound 76] fall in the same range of IC50: 1000 to 10000 nM for the first, 1000 to 10000 nM for the second.

`Cc1cc(NCCCO)nc(NC(=O)Nc2ccccc2)n1` [Compound 70, 1-(4-((3-hydroxypropyl)amino)-6-methylpyrimidin-2-yl)-3-phenylurea] and `Cc1cc(NCCCCO)nc(NC(=O)Nc2ccccc2)n1` [Compound 73] fall in the same range of IC50: 1000 to 10000 nM for the first, 1000 to 10000 nM for the second.

`Cc1cc(NCCO)nc(NC(=O)Nc2ccccc2)n1` [Compound 71] and `Cc1cc(NCCN)nc(NC(=O)Nc2ccccc2)n1` [Compound 72, 1-(4-((2-aminoethyl)amino)-6-methylpyrimidin-2-yl)-3-phenylurea] fall in the same range of IC50: 1000 to 10000 nM for the first, 1000 to 10000 nM for the second.

`Cc1cc(NCCN(C)C)nc(NC(=O)Nc2ccccc2)n1` [Compound 74] and `CNCCNc1cc(C)nc(NC(=O)Nc2ccccc2)n1` [Compound 82, 1-(4-methyl-6-((2-(methylamino)ethyl)amino)pyrimidin-2-yl)-3-phenylurea] fall in the same range of IC50: 1000 to 10000 nM for the first, 1000 to 10000 nM for the second.

`Cc1cc(NCCCN)nc(NC(=O)Nc2ccccc2)n1` [Compound 75] and `CNCCCNc1cc(C)nc(NC(=O)Nc2ccccc2)n1` [Compound 83, 1-(4-methyl-6-((3-(methylamino)propyl)amino)pyrimidin-2-yl)-3-phenylurea] fall in the same range of IC50: 1000 to 10000 nM for the first, 1000 to 10000 nM for the second.

First: Cc1cc(NCC(C)O)nc(NC(=O)Nc2ccccc2)n1 (stereo not drawn) [Compound 77]
Second: Cc1cc(NCC(O)CO)nc(NC(=O)Nc2ccccc2)n1 (stereo not drawn) [Compound 78]
The IC50 of the first is higher: 1000 to 10000 nM for the first, under 1000 nM for the second.

First: Cc1cc(NCC(F)(F)CO)nc(NC(=O)Nc2ccccc2)n1 [Compound 79]
Second: Cc1cc(NCC(F)(F)CO)nc(NC(=O)Nc2ccc(OC(F)(F)F)cc2)n1 [Compound 94]
The IC50 of the first is higher: 1000 to 10000 nM for the first, under 1000 nM for the second. The second is the more potent here.

`Cc1cc(NCCCN(C)C)nc(NC(=O)Nc2ccc(OC(F)(F)F)cc2)n1` [Compound 85, 1-(4-((3-(dimethylamino)propyl)amino)-6-methylpyrimidin-2-yl)-3-(4-(trifluoromethoxy)phenyl)urea] and `Cc1cc(NCCN(C)C)nc(NC(=O)Nc2ccc(OC(F)(F)F)cc2)n1` [Compound 88] cannot be ordered by IC50: under 1000 nM for the first, under 1000 nM for the second.

`Cc1cc(NCCCO)nc(NC(=O)Nc2ccc(OC(F)(F)F)cc2)n1` [Compound 86, 1-(4-((3-hydroxypropyl)amino)-6-methylpyrimidin-2-yl)-3-(4-(trifluoromethoxy)phenyl)urea] and `Cc1cc(NCCCN)nc(NC(=O)Nc2ccc(OC(F)(F)F)cc2)n1` [Compound 89] cannot be ordered by IC50: under 1000 nM for the first, under 1000 nM for the second.

`Cc1cc(NCCN)nc(NC(=O)Nc2ccc(OC(F)(F)F)cc2)n1` [Compound 87, 1-(4-((2-aminoethyl)amino)-6-methylpyrimidin-2-yl)-3-(4-(trifluoromethoxy)phenyl)urea] and `CCCNc1cc(C)nc(NC(=O)Nc2ccc(OC(F)(F)F)cc2)n1` [Compound 91] cannot be ordered by IC50: under 1000 nM for the first, under 1000 nM for the second.

`CCNc1cc(C)nc(NC(=O)Nc2ccc(OC(F)(F)F)cc2)n1` [Compound 90] and `Cc1cc(NCCC(N)=O)nc(NC(=O)Nc2ccc(OC(F)(F)F)cc2)n1` [Compound 93] cannot be ordered by IC50: under 1000 nM for the first, under 1000 nM for the second.

`COC(=O)CCNc1cc(C)nc(NC(=O)Nc2ccc(OC(F)(F)F)cc2)n1` [Compound 92] gave an IC50 of under 1000 nM.
